Test results as given in patent US20240277767A1, “METHODS AND USES” (PROLEUKOCYTE AB, priority 2021, published 2024).
“Also recorded” adds a separate entry of the source.

How the values were obtained:
Format in all cases: cell-based, human
[1] = system: tumour infiltrating lymphocytes (TIL); test: Intracellular ROS levels in TIL (CM-H2DCFDA, flow cytometry)
Protocol: (§1) For Nrf2 inhibition, NK cells were treated with 50 μM ML-385 (Sigma-Aldrich) in parallel. For H2O2 treatment, lymphocyte cells were washed and resuspended to 1×10^6 cells/mL in medium and exposed to indicated H2O2 (Sigma-Aldrich) concentration for 1 h at 37° C. Cells were washed with medium and then used for further experiments. For monocyte experiments, autologous NK cell-monocytes or TIL-monocytes were used. NK cells/TIL were isolated and pre-treated with 0.5 μg/mL AUF, as described above, and co-cultured with unstimulated at the ratio, 1:2 M:NK, or stimulated monocytes at the ratio, 1:1 M:NK, if not indicated otherwise. Stimulated monocytes were activated with 100 ng/ml PMA for 1 min, washed and added at indicated ratio, the number of NK cell/TIL was kept constant. As control, H2O2 was used at indicated concentration. Cells were co-cultured for 2 h and then effector cells were stained for intracellular ROS (see flow cytometry) or used as effector cells in Cr^51 release assay (E:T ratio 10:1).
For TIL, T cells were pre-incubated with 10 μM CM-H2DCFDA (Thermo Fisher Scientific) solution in RPMI for 30 min at 37° C. prior to H2O2 treatment and then stained with anti-CD3, anti-CD4 and anti-CD8.

NK cells [2] = test: Intracellular ROS levels in NK cells (CellROX, flow cytometry)
Protocol: as §1
For detection of intracellular ROS levels, for NK cells CellROX™ Deep Red Reagent (Invitrogen) were used. Briefly, NK cells were stained with 2.5 μM CellROX solution in RPMI for 30 min at 37° C. and then stained for flow cytometry with anti-CD56 and anti-CD3 (both Biolegend).

[3] = system: Nrf2 target genes (NQO1, HMOX1, TXNRD1, Keap1); test: qPCR of classical Nrf2 target genes in TIL
Protocol: Lymphocytes were pre-treated with AUF, SUL or DMF as described above. RNA was isolated using TRIzol™ Plus RNA Purification Kit (Invitrogen). cDNA was generated using the iScript™ cDNA Synthesis Kit (Bio-Rad) and qPCR was done using iTaq™ Universal SYBR® Green Supermix (Bio-Rad) in the CFX96 Touch Real-Time PCR Detection System (Bio-Rad). Fold change expression from untreated cells was calculated using the 2^-ΔΔCt formula with b-actin as reference gene. Evaluated genes were NAD(P)H Quinone Dehydrogenase 1 (NQO1), Kelch Like ECH Associated Protein 1 (Keap1), Heme Oxygenase 1 (HMOX1) and Thioredoxin Reductase 1 (TXNRD1).

KADA TIL = test: Quantification of CD4+ T cells and Tregs in AUF pre-treated KADA TIL (flow cytometry); settings: AUF 0.5 μg/mL
Protocol: Tregs were defined as CD3+CD4+ FoxP3+. Directly after the treatment, TIL were stimulated for six hours with PMA/Ionomycin or autologous tumor cells and then stained for intracellular cytokines IL-10 (C) and TGFβ (D).
Lymphocytes were pre-treated for 18 h with Auranofin (AUF, with the concentration 1 μg/mL for NK cells and 0.5 μg/mL for TIL. As AUF was reconstituted in DMSO, control NK cells were pre-treated with DMSO with an equivalent volume to the highest compound concentration. For N-acetylcysteine (NAC, Invitrogen) treatment, DMSO pre-treated cells were incubated for 1 h with 5 or 10 mM NAC prior to H2O2 treatment. For H2O2 treatment, lymphocytes were washed and resuspended to 1×10^6 cells/mL in RPMI containing the indicated H2O2 (Sigma-Aldrich) concentration for 1 h at 37° C. 5% CO2. Cells were washed with medium and then used for further experiments.
All antibodies (see Table 1 in Example 1) and FACS reagents were used according to manufacturers' recommendation, if not stated otherwise. Cells were stained with LIVE/DEAD™ Fixable Aqua Dead Cell Stain Kit (Invitrogen) and then stained with the respective antibodies for 20 min at 4 °C in PBS 1% FBS. Intracellular staining was performed using Fixation/Permeabilization Kit (BD Biosciences) following the manufacturer's instructions. […]

NK cells [4] = test: Viability of pre-treated NK cells after H2O2 treatment (flow cytometry); settings: alive NK cells 4 h after H2O2 treatment, vs untreated NK cells
Protocol: (§2) Lymphocytes were pre-treated for 18 h with Auranofin (AUF, with the concentration 1 μg/mL for NK cells and 0.5 μg/mL for TIL, if not indicated differently), DL-Sulforaphane (SUL) or Dimethyl Fumarate (DMF) (all Sigma-Aldrich) at indicated concentrations.
as §1, with “Cells were co-cultured for 2 h and then effector cells were stained for intracellular ROS (see flow cytometry) or used as effector cells in Cr^51 release assay (E:T ratio 10:1).” left out
All antibodies (see Table 1) and FACS reagents were used according to manufactures recommendation, if not stated otherwise. […] Samples were fixed with 2% PFA (Thermo scientific) for 15 min before acquired on a NovoCyte (ACEA Biosciences) and analysed using FlowJo Software (TreeStar).

[5] = system: tumour infiltrating lymphocytes (TIL); test: [Cr51]-release assay: lysis of autologous tumour cells by pre-treated TIL
Protocol: Melanoma patient derived TIL and CD19 directed CAR T cells were generated as previously described (Magalhaes et al., 2018; Lövgren et al., 2020).
as §2, §1
For cytotoxic assay, a standard 4 h [Cr^51]-release assay was used. Briefly, tumour cells were harvested and labeled with 51Cr (PerkinElmer) and used as target cells. Effector cells, NK cells and T cells, were co-cultured in 96-well V-bottom plate with indicated tumour cells at the stated effector target ratio (E:T). The supernatant was collected onto LUMA plates (Perkin-Elmer) and radioactivity/tumour cell lysis was detected by MicroBeta2 (Perkin Elmer). Target cell killing measured by % specific lysis and calculated using the formula: ((experimental release-spontaneous release)/(maximum release-spontaneous release))*100.

## CC(=O)OC[C@H]1O[C@@H]([S-])[C@H](OC(C)=O)[C@@H](OC(C)=O)[C@@H]1OC(C)=O.CCP(CC)CC.[Au+] [AUF, Auranofin]
[1]; 72 h after AUF removal
  Effect on intracellular ROS levels in TIL: effects remained
[1]; KADA and BEHA TIL
  Fluorescence correlating to intracellular ROS levels in TIL: lowered
NK cells [2]; 72 h after AUF removal
  Intracellular fluorescence of the ROS indicator in NK cells vs controls: no differences
NK cells [2]; H2O2 challenge 0-48 h after AUF removal
  Intracellular fluorescence of the ROS indicator in NK cells: significantly lower intracellular fluorescence of the ROS indicator
NK cells [2]; up to 72 h after compound removal
  Intracellular ROS levels in NK cells and TIL after H2O2 treatment: decreased intracellular ROS levels
NK cells [2]; without addition of H2O2
  Intracellular ROS levels in NK cells: significantly reduced intracellular ROS levels
[3]
  Time of HMOX1 expression peak in TIL: 3 h
[3]; TIL from three melanoma patients KADA, ANRU, BEHA
  Activation of Nrf2 target genes in TIL: robust activation
KADA TIL
  Frequency of CD4+ T cells after AUF pre-treatment: did not observe any increase
KADA TIL; 0 h or 72 h post pre-treatment
  Induction of regulatory T cells (CD3+CD4+FoxP3+): do not induce regulatory T cells; also recorded: no induction of regulatory T cells could be detected
NK cells [4]
  Viability of NK cells following exposure to H2O2: improved viability
[5]; 0-72 h after AUF removal, H2O2
  Lysis of autologous tumour cells by TIL after AUF removal: increased lysis of autologous tumour cells
[5]; KADA, also in the absence of ROS
  Specific lysis of autologous tumour cells by TIL: clearly higher
[5]; highest AUF concentration
  Time after AUF withdrawal until which increased lysis by TIL lasted: 72 h
